Results: US20090062326A1, “M3 MUSCARINIC RECEPTOR ANTAGONISTS FOR TREATMENT OF M3 MUSCARINIC RECEPTOR-EXPRESSING TUMORS” (priority 2006, published 2009)
Where two headings read alike, the source gives them in different places.

Columns and labels:
[1] = tested on: SCLC cell line H82; experiment: H82 cell proliferation with subtype-selective mAChR antagonists; type: cell-based, human
Protocol: (§1) For in vitro cell proliferation assays, cells were suspended at a concentration of 50,000 cells/ml and pipetted up and down to break up cell clumps. 100 μl cell suspension was added to each well of a 96-well plate. 100 μl darifenacin at concentrations of 2×10^−5, 2×10^−6, 2×10^−7, 2×10^−8, 2×10^−9 M and vehicle control were then added to wells. Every three days, half the volume of the media was changed and at 0, 3, 6, 9 and 12 days, cell number was determined with the Cell-Titer Blue reagent (Promega, Madison Wis.) which measures the production of the fluorescent product of resorufin from resazurin by metabolically active cells.

[2] = tested on: H82 cells; experiment: H82 SCLC tumor growth in nude mice, subcutaneous minipump; type: in vivo, mouse
Protocol: Mice (NU/NU, Charles River Laboratories) were injected with SCLC tumor cells (NCI-H82 cells, American Type Culture Collection (ATCC); Manassas, Va.), treated with drug and tumor growth monitored. The H82 cells express M3 muscarininc receptor (see Song et al., Cancer Res. 63:214-21, 2003). Nude mice, 5-7 weeks old were housed in a pathogen-free room in microisolators with autoclaved bedding, and fed autoclaved rodent chow and water.
H82 cells were first grown in RPMI-1640+ITS (insulin (5 μg/ml), transferrin (5 μg/ml), sodium selenite (5 ng/ml)). Cells were collected, centrifuged and resuspended in fresh RPMI-1640+ITS at a concentration of 5×10^6 cell/0.25 ml. Cells were then mixed with an equal volume of matrigel (BD Biosciences) to give a final concentration of 5×10^6 cell/0.5 ml and 0.5 ml of this cell suspension was then injected subcutaneously into the right flank of each mouse.
(§2) Tumors were allowed to grow for one week, then drug administration was initiated and continued for the next 4 weeks. Drugs were administered by subcutaneously-implanted osmotic minipumps (Alzet model# 2004). Atropine and darifenacin were dissolved in 50% DMSO/50% phosphate-buffered saline. Atropine was delivered at a dose of 10 mg/kg per day; darifenacin (Novartis Pharma AG, Basel, Switzerland) was delivered at doses of 0.3, 1.0 and 3.0 mg/kg per day. Control animals received minipumps filled with 50% DMSO/50% phosphate-buffered saline.
(§3) Tumor volume was determined weekly by measuring with calipers (volume=height×width×depth). Mice were euthanized after 4 weeks of drug administration. 10 animals were used per group. At sacrifice tumors were removed and weighed. Part of the tumor was fixed for histologic examination of tumor morphology and part was frozen for RNA and protein analyses.

[3] = tested on: SCLC cell lines; experiment: in vitro cell proliferation assay (Cell-Titer Blue); type: cell-based, human
Protocol: SCLC cell lines (HA-E, SV-E, LV-E, BK-T, HG-E, AD-A, LD-T, H69 (HTB-119), H82 (HTB-175), H146 (HTB 173), H187 (CRL-5804), H524 (CRL-5831), H526 (CRL-5811), H740 (CRL-5840), H841 (CRL-5845), H1048 (CRL-5853), H1105 (CRL-5856), H1417 (CRL-5869), H1694 (CRL-5888). H1836 (CRL-5898), H1876 (CRL-5902), H2029 (CRL-5913), H2195 (CRL-5931), and H2198 (CRL-5933)), were grown in RPMI 1640 medium (Mediatech, Herndon Va.) supplemented with 0-10% fetal bovine serum (Hyclone, Logan, Utah) and ITS (5 μg/ml insulin, 5 μg/ml transferrin, 5 ng/ml sodium selenite (BD Biosciences, San Jose, Calif.)) plus 100 units/ml penicillin, […] streptomycin, and […] amphotericin (Invitrogen, Carlsbad Calif.) at 37° C. in a humidified 5% CO2 atmosphere.
as §1

[4] = overall animal weight of treated nude mice; type: in vivo, mouse; details: darifenacin treatment
Protocol: as §2

[5] = plasma darifenacin concentration in nude mice; type: in vivo, mouse; details: s.c. minipump; for concentration at 4 weeks: mouse, plasma, sc
Protocol: FIG. 4 is a bar graph showing the relation of nude mouse darifenacin dose to concentration of darifenacin achieved in mouse blood. Dashed lines show concentration of darifenacin obtained in humans treated with 30 mg extended release darifenacin per day.
as §2
Thus significant reduction in SCLC growth can be achieved at clinically relevant doses of M3 mAChR antagonists.

[6] = tested on: MAPK phosphorylation; experiment: MAPK phosphorylation in tumors removed from treated mice; type: in vivo, mouse; details: tumors removed from darifenacin-treated mice
Protocol: as §3
(§4) ACh content of control tumor samples was 420±110 pmol/g which, corresponds to 4×10^−7 M, assuming uniform distribution in the tumor. These levels of ACh are high enough to increase MAPK phosphorylation.

[7] = tested on: Akt phosphorylation; experiment: Akt phosphorylation in tumors removed from treated mice; type: in vivo, mouse; details: tumors removed from darifenacin-treated mice
Protocol: as §3, §4

[8] = tested on: H82 SCLC cells; details: H82 SCLC cells incubated with nicotine; FIG. 6
Protocol: H82 SCLC cells were incubated with nicotine for the times shown and secretion of ACh into the medium was measured.

[9] = tested on: H82 cells; experiment: H82 tumors in nude mice receiving nicotine (planned); type: in vivo, mouse; details: nicotine 2.0 mg/kg/day by minipump
Protocol: Nude mice are administered H82 cells as described in Example 3. […] Nicotine (nicotine bitartrate, Sigma) is dissolved in water at a concentration to deliver 2.0 mg/kg/day; and will be administered by a second minipump. Tumor volume will be determined weekly as described in the Examples above, and mice euthanized after 4 weeks of drug administration. At sacrifice tumors are removed and weighed. Part of the tumor can be fixed for histologic examination of tumor morphology and part frozen for RNA and protein analyses.

[10] = tested on: lung, pancreas and esophagus; details: nicotine for 3 weeks vs control mice
Protocol: At the end of 3 weeks, bromodeoxy uridine (BrdU) will be injected ip, 50 mg/kg, then 24 hours later mice will be sacrificed and selected tissues removed to measure cell proliferation. Tissues removed will include lung, pancreas and esophagus, tumors of which are associated with smoking. Tissues will be sectioned and BrdU incorporation into cells determined so as to determine the number of replicating cells per section.

[11] = up to 10^−5 mol/L, nine days of treatment

C[N+]1(C)CCC(OC(=O)C(c2ccccc2)c2ccccc2)CC1.[I-] [4-DAMP, 4-diphenylacetoxy-N-methylpiperidine methiodide]
H82 cell proliferation ([1]; 10^−9 mol/L to 10^−5 mol/L, after nine days): significantly reduced cell proliferation

CCN(CC)CC1CCCCN1CC(=O)N1c2ccccc2C(=O)Nc2cccnc21 (centres unmarked) [AFDX-1116]
H82 cell proliferation [1, 11]: no detectable effect

Cl.O[Si](CCCN1CCCCC1)(c1ccc(F)cc1)C1CCCCC1 (centres unmarked) [P-F-HHSiD, hexahydro-sila-difenidol hydrochloride, p-fluoro analog]
H82 cell proliferation ([1]; 10^−5 mol/L, after nine days): significantly reduced cell proliferation

CN1[C@@H]2CC[C@H]1C[C@@H](OC(=O)C(CO)c1ccccc1)C2 (some centres unmarked) [atropine]
tumor growth (tumor weight) ([2]; 10 mg/kg per day s.c. minipump, weeks 1-5, FIG. 5): do not reduce or inhibit tumor growth

NC(=O)C(c1ccccc1)(c1ccccc1)[C@@H]1CCN(CCc2ccc3c(c2)CCO3)C1 [darifenacin, (S)-2-{1-[2-(2,3-dihydrobenzofuran-5-yl)ethyl]-3-pyr-rolidinyl}-2,2-diphenyl-acetamide]
cell growth in five SCLC cell lines ([3]; 10 μM darifenacin, H187, H1048, H1836, H1876, H520, FIGS. 1A-E): responsive | SCLC cell lines with significantly reduced proliferation ([3]; 20 SCLC cell lines tested): 14 out of 20 | proliferation of non-responding cell lines ([3]; cell lines LV-E, AD-A, L-D-T, H69, H1417, H2198): not affected | tumor size (volume by calipers) ([2]; 0.3, 1.0 and 3.0 mg/kg per day s.c. minipump, weeks 1-5, FIG. 2): dosewise-reduction | histology of tumor cells compared to controls ([2]; highest dose of darifenacin): larger in size, with increased-cytoplasm and less nuclear molding | inhibition of tumor size, statistics ([2]; largest dose (3.0 mg/kg per day), FIG. 2): statistically significant | tumor weight ([2]; tumors removed and weighed at end of 5 weeks, FIG. 3): significant decrease | overall animal weight [4]: No significant effects | concentration at 4 weeks ([5]; 3 mg/kg per day, read-out: average plasma darifenacin concentration at which tumor growth was reduced): 9.4 ± 0.3 ng/mL | concentration at 4 weeks ([5]; FIG. 4, read-out: plasma darifenacin concentrations at which inhibition of tumor growth was achieved): 3 to 10 ng/mL | average plasma darifenacin concentration [5]: ~25 nM | average plasma darifenacin concentration at which tumor growth was reduced [5]: 9.4 ± 0.97 ng/mL | levels of MAPK phosphorylation in the tumors [6]: significantly decreased | Akt phosphorylation in the tumors [7]: no significant effects

CN1CCCC1c1cccnc1 (centres unmarked) [nicotine]
acetylcholine secretion into the medium [8]: stimulates acetylcholine secretion | effect of nicotine on tumor growth [9]: grow faster | replicating cells in tissue (BrdU incorporation) [10]: more replicating cells

CN1CCN(CC(=O)N2c3ccccc3C(=O)Nc3cccnc32)CC1 [pirenzepine]
H82 cell proliferation [1, 11]: no detectable effect

O=C(O[C@H]1C[C@H]2CC[C@@H](C1)[N+]21CCCC1)C(O)(c1ccccc1)c1ccccc1 [trospium]
tumor growth ([2]; stated for nonselective antagonists, no dose or test described): do not reduce or inhibit tumor growth
